What all share (type): cell-based
Data set [1] is described as follows: Cytotoxicity against human HEK293-EBNA cells assessed as cell viability at 25 uM by MTS/PMS assay. The conditions noted are these: read-out: Activity.
Data set [2] deals with Indoleamine 2,3-dioxygenase 1 (Homo sapiens) (UniProt P14902). Description: Inhibition of human IDO1 expressed in HEK293-EBNA assessed as reduction in kynurenine formation using tryptophan as substrate at 3.12 uM incubated for 24 hrs by HPLC analysis relative to control.
Sequence of Indoleamine 2,3-dioxygenase 1 (Homo sapiens) (P14902 whole entry, looked up): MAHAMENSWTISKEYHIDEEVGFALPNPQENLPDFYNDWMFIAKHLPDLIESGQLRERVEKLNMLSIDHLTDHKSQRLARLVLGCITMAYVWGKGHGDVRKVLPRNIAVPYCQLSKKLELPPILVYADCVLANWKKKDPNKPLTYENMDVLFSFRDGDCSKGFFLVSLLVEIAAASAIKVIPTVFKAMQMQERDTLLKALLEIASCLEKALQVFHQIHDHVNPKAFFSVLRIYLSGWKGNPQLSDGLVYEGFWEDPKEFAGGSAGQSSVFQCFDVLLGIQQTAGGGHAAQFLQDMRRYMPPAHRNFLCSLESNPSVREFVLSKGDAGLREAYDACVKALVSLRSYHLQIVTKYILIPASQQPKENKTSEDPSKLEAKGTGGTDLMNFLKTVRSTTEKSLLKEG
Data set [3] shares this target. The experiment in a line: Inhibition of human IDO1 expressed in HEK293-EBNA cells assessed as reduction in kynurenine formation using tryptophan as substrate at 12.5 uM incubated for 24 hrs by HPLC analysis relative to control.
Data set [4] in a line: Cytotoxicity against human HEK293-EBNA cells assessed as cell viability at 3.12 uM by MTS/PMS assay. The conditions noted are these: read-out: Activity.
The target of data set [5] is Tryptophan 2,3-dioxygenase (Homo sapiens) (UniProt P48775). The experiment in a line: Inhibition of human TDO expressed in HEK293-EBNA cells assessed as reduction in kynurenine formation using tryptophan as substrate at 6.25 uM incubated for 24 hrs by HPLC analysis relative to control.
Sequence of Tryptophan 2,3-dioxygenase (Homo sapiens) (P48775 whole entry, looked up): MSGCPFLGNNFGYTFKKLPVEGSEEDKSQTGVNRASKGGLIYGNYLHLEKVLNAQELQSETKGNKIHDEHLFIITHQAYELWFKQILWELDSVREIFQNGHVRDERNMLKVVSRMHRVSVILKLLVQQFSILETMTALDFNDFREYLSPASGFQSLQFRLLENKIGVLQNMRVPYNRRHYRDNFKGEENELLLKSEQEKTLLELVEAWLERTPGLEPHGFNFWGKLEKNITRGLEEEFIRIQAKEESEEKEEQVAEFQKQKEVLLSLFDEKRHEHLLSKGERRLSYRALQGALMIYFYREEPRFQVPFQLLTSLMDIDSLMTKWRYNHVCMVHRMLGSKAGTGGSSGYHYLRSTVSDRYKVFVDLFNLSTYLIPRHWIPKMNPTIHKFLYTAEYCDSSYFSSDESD
Data set [6] shares this target. The experiment in a line: Inhibition of human TDO expressed in HEK293-EBNA cells assessed as reduction in kynurenine formation using tryptophan as substrate at 12.5 uM incubated for 24 hrs by HPLC analysis relative to control.
The target is the same in data set [7]. The experiment in a line: Inhibition of human TDO expressed in HEK293-EBNA cells assessed as reduction in kynurenine formation using tryptophan as substrate at 25 uM incubated for 24 hrs by HPLC analysis relative to control.
Data set [8] in a line: Cytotoxicity against human HEK293-EBNA cells assessed as cell viability at 12.5 uM by MTS/PMS assay. The settings on record: read-out: Activity.
The target of data set [9] is Tryptophan 2,3-dioxygenase (Homo sapiens) (UniProt P48775). The experiment in a line: Inhibition of human TDO expressed in HEK293-EBNA cells assessed as reduction in kynurenine formation using tryptophan as substrate at 3.12 uM incubated for 24 hrs by HPLC analysis relative to control.
For data set [10], the target named is Indoleamine 2,3-dioxygenase 1 (Homo sapiens) (UniProt P14902). Description: Inhibition of human IDO1 expressed in HEK293-EBNA cells assessed as reduction in kynurenine formation using tryptophan as substrate at 6.25 uM incubated for 24 hrs by HPLC analysis relative to control.
For data set [11] the target is unchanged. Description: Inhibition of human IDO1 expressed in HEK293-EBNA cells assessed as reduction in kynurenine formation using tryptophan as substrate at 25 uM incubated for 24 hrs by HPLC analysis relative to control.
Data set [12] in a line: Cytotoxicity against human HEK293-EBNA cells assessed as cell viability at 6.25 uM by MTS/PMS assay. The conditions noted are these: read-out: Activity.

Each structure is given as a SMILES string.

Here are results for one molecule from ChEMBL document CHEMBL4819048, “IDO1 and TDO inhibitory evaluation of analogues of the marine pyrroloiminoquinone alkaloids: Wakayin and Tsitsikammamines” (Bioorg Med Chem Lett, 2021).

For orientation: inhibition means the relative decrease from the control value, in per cent. Regarding `Cc1ccc(S(=O)(=O)n2ccc3c2C(=O)c2c(c(-c4c[nH]c5ccccc45)cn2C)C3=O)cc1`, the viability at 25 µM in data set [1] worked out at 88%. The inhibition in data set [2] is 8%; in data set [3], 21%; in data set [5] it was 3%; in data set [6] it was 0%; in [7], -3%; in [9] it was 2%. The inhibition was determined as 12% in data set [10] and 27% in [11]. Besides, the viability at 3.12 µM in [4] was found to be 98%. In [8], the viability at 12.5 µM came to 96%. The viability at 6.25 µM in data set [12] is 96%.
